Measurements: patent US20130078317A1, “ZINC-CONTAINING COMPOSITIONS FOR THE TREATMENT OF DISEASES, ILLNESSES AND SYNDROMES ASSOCIATED WITH EXPOSURE TO PORE FORMING TOXINS” (priority 2009, published 2013)

What was measured:
[1] = biological target: T1, purified hemolysin from Carybdea alata (Alatina alata, UniProt Q9GNN8); assay: Potassium efflux induced by purified hemolysin from Carybdea alata in isolated red blood cells; type: cell-based; details: 2% RBC; FIG. 4 legend
T1 sequence (Q9GNN8 31-463 limits assumed): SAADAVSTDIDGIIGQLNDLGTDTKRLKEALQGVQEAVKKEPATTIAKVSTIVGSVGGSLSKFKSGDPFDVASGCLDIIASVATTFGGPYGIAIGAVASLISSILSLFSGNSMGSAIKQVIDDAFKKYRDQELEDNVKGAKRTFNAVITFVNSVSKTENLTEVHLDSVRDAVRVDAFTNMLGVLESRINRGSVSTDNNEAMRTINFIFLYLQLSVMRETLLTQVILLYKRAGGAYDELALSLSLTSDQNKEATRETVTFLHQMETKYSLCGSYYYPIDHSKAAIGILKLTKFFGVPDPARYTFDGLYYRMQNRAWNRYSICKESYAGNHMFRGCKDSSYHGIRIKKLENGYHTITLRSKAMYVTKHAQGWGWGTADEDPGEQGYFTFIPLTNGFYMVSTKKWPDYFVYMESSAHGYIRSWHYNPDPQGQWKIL

Carybdea alata hemolysin = biological target: T2, Carybdea alata hemolysin (Alatina alata, UniProt Q9GNN8); assay: Hemolysis induced by Carybdea alata hemolysin in 2% RBC; type: cell-based; details: 5 mM zinc gluconate
T2 sequence (Q9GNN8 31-463 limits assumed): T1 sequence (Q9GNN8 31-463 limits assumed)

## zinc gluconate
[1]
  potassium efflux induced by purified hemolysin from Carybdea alata: inhibits
Carybdea alata hemolysin
  hemolysis induced by Carybdea alata hemolysin: substantially inhibited
